Laboratory results from patent US9181234B2, “Antibacterial compounds” (priority 2010, dated 2015).
Values after ≈ are worked out from the molar mass of the structure shown.

Experiments:
[1] = physchem; settings: for solubility at 24 h: pH 7.4, aqueous buffer, kinetic from dmso stock
How it was run: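 DMSO doubling dilutions were diluted twenty-fold into 100 mM citrate (pH 4), PBS (pH 7.4) or carbonate-bicarbonate (pH 9). After 24 h equilibration at room temperature, absorbance was read at 620 nm. The reported value is the highest concentration without measurable precipitate.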

[2] = tested on: Staphylococcus aureus (Isolate ID ATCC 29213); assay: Antibacterial activity, MIC, S. aureus; format: cell-based; settings: broth microdilution or agar dilution; for MIC: Staphylococcus aureus, ATCC29213, Gram positive strain
How it was run: (§1)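 Compounds are serially diluted in broth or agar as CLSI specifies for aerobically growing bacteria, and the MIC is then recorded for each strain.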

[3] = tested on: Enterococcus faecalis (Isolate ID ATCC 29212); assay: Antibacterial activity, MIC, E. faecalis; format: cell-based; settings: Gram positive strain, broth microdilution or agar dilution; for MIC: Enterococcus faecalis, ATCC29212
How it was run: as §1

[4] = tested on: Streptococcus pyogenes (Isolate ID ATCC 51339); assay: Antibacterial activity, MIC, S. pyogenes; format: cell-based; settings: broth microdilution or agar dilution; for MIC: Streptococcus pyogenes, ATCC51339, Gram positive strain
How it was run: as §1

[5] = tested on: Haemophilus influenzae (Isolate ID ATCC 49247); assay: Antibacterial activity, MIC, H. influenzae; format: cell-based; settings: Gram negative strain, broth microdilution or agar dilution; for MIC: Haemophilus influenzae, ATCC49247
How it was run: as §1

SMILES	solubility at 24 h ([1]; Solubility (pH 7.4))	solubility at 24 h ([1]; Solubility Range)	MIC [2]	MIC [3]	MIC [4]	MIC [5]	Max Solubility ([1]; pH 4)	Solubility (pH 7.4) ([1]; pH 7.4)	Antibacterial Activity (MIC) S. aureus (ATCC 29213) ([2]; Gram positive strain)	Antibacterial Activity (MIC) E. faecalis (ATCC 29212) [3]	Antibacterial Activity (MIC) S. pyogenes (ATCC 51339) ([4]; Gram positive strain)	Antibacterial Activity (MIC) H. influenzae (ATCC 49247) [5]	solubility at 24 h ([1]; Max Solubility)	solubility at 24 h ([1]; Solubility Range (maximum solubility))
CCNC(=O)Nc1nc2cc(-c3cnc(N4CCC(N)(C(=O)OC)CC4)nc3)cc(-c3ccccn3)c2s1 [Compound 168]	25 µg/mL (≈ 46.9 µM)	12.5 to 400 µg/mL (≈ 23.5 to 751 µM)	0.25 to 1 µg/mL (≈ 0.469 to 1.88 µM)	≤ 0.25 µg/mL	1 to 16 µg/mL (≈ 1.88 to 30 µM)	> 16 µg/mL	–	–	–	–	–	–	–	–
CCNC(=O)Nc1nc2cc(-c3cnc(N4CCC(C)(C(=O)OC)CC4)nc3)cc(-c3ccccn3)c2s1 [Compound 169]	6.25 µg/mL (≈ 11.8 µM)	< 12.5 µg/mL	1 to 16 µg/mL (≈ 1.88 to 30.1 µM)	0.25 to 1 µg/mL (≈ 0.47 to 1.88 µM)	≤ 0.25 µg/mL	1 to 16 µg/mL (≈ 1.88 to 30.1 µM)	–	–	–	–	–	–	–	–
CCNC(=O)Nc1nc2cc(-c3cnc(N4CCC(=O)C(C)(C(=O)OC)C4)nc3)cc(-c3ccccn3)c2s1 (centres unmarked) [Compound 170]	6.25 µg/mL (≈ 11.5 µM)	< 12.5 µg/mL	0.25 to 1 µg/mL (≈ 0.458 to 1.83 µM)	≤ 0.25 µg/mL	0.25 to 1 µg/mL (≈ 0.458 to 1.83 µM)	> 16 µg/mL	–	–	–	–	–	–	–	–
CCNC(=O)Nc1nc2cc(-c3cnc(N4CCC(C)(C(=O)OCC)CC4)nc3)cc(-c3ccccn3)c2s1 [Compound 171]	3.12 µg/mL (≈ 5.73 µM)	< 12.5 µg/mL	> 16 µg/mL	0.25 to 1 µg/mL (≈ 0.458 to 1.83 µM)	≤ 0.25 µg/mL	1 to 16 µg/mL (≈ 1.83 to 29.3 µM)	–	–	–	–	–	–	–	–
CCNC(=O)Nc1nc2cc(-c3cnc(N4CCC(O)C(C)(C(=O)OC)C4)nc3)cc(-c3ccccn3)c2s1 (centres unmarked) [Compound 172]	12.5 µg/mL (≈ 22.8 µM)	12.5 to 400 µg/mL (≈ 22.8 to 730 µM)	1 to 16 µg/mL (≈ 1.83 to 29.2 µM)	≤ 0.25 µg/mL	≤ 0.25 µg/mL	1 to 16 µg/mL (≈ 1.83 to 29.2 µM)	–	–	–	–	–	–	–	–
CCNC(=O)Nc1nc2cc(-c3cnc(N4CCC(O)(C(=O)OC)CC4)nc3)cc(-c3ccccn3)c2s1 [Compound 173]	50 µg/mL (≈ 93.7 µM)	12.5 to 400 µg/mL (≈ 23.4 to 750 µM)	0.25 to 1 µg/mL (≈ 0.469 to 1.87 µM)	≤ 0.25 µg/mL	≤ 0.25 µg/mL	1 to 16 µg/mL (≈ 1.87 to 30 µM)	–	–	–	–	–	–	–	–
CCNC(=O)Nc1nc2cc(-c3cnc(N4CCC(C#N)(C(=O)OCC)CC4)nc3)cc(-c3ccccn3)c2s1 [Compound 174]	3.12 µg/mL (≈ 5.61 µM)	< 12.5 µg/mL	> 16 µg/mL	0.25 to 1 µg/mL (≈ 0.449 to 1.8 µM)	0.25 to 1 µg/mL (≈ 0.449 to 1.8 µM)	> 16 µg/mL	–	–	–	–	–	–	–	–
CCNC(=O)Nc1nc2cc(-c3cnc(N4CCC(OC)(C(=O)OC)CC4)nc3)cc(-c3ccccn3)c2s1 [Compound 175]	25 µg/mL (≈ 45.7 µM)	12.5 to 400 µg/mL (≈ 22.8 to 730 µM)	0.25 to 1 µg/mL (≈ 0.457 to 1.83 µM)	≤ 0.25 µg/mL	≤ 0.25 µg/mL	1 to 16 µg/mL (≈ 1.83 to 29.2 µM)	–	–	–	–	–	–	–	–
CCNC(=O)Nc1nc2cc(-c3cnc(N4CCC(C(=O)OCC)(S(C)(=O)=O)CC4)nc3)cc(-c3ccccn3)c2s1 [Compound 176]	100 µg/mL (≈ 164 µM)	12.5 to 400 µg/mL (≈ 20.5 to 656 µM)	> 16 µg/mL	> 16 µg/mL	0.25 to 1 µg/mL (≈ 0.41 to 1.64 µM)	> 16 µg/mL	–	–	–	–	–	–	–	–
CCNC(=O)Nc1nc2cc(-c3cnc(N4CCC(Cc5ccccc5)(C(=O)OCC)CC4)nc3)cc(-c3ccccn3)c2s1 [Compound 177]	12.5 µg/mL (≈ 20.1 µM)	12.5 to 400 µg/mL (≈ 20.1 to 643 µM)	> 16 µg/mL	> 16 µg/mL	> 16 µg/mL	> 16 µg/mL	–	–	–	–	–	–	–	–
CCNC(=O)Nc1nc2cc(-c3cnc(N4CCC(C)(C(=O)OCC)CC4)nc3)cc(C3CCN(C(C)=O)CC3)c2s1 [Compound 178]	–	–	–	–	–	–	6.25 µg/mL	3.125 μg/mL	D (“D” activity >16 μg/mL)	D (“D” activity >16 μg/mL)	C (“C” activity >1.0 μg/mL-16 μg/mL)	D (“D” activity >16 μg/mL)	–	–
CCNC(=O)Nc1nc2cc(-c3cnc(N4CCC(C(=O)OC)(C(F)(F)F)C4)nc3)cc(-c3ccccn3)c2s1 (centres unmarked) [Compound 180]	6.25 µg/mL (≈ 10.9 µM)	< 12.5 µg/mL	1 to 16 µg/mL (≈ 1.75 to 28 µM)	0.25 to 1 µg/mL (≈ 0.437 to 1.75 µM)	0.25 to 1 µg/mL (≈ 0.437 to 1.75 µM)	> 16 µg/mL	–	–	–	–	–	–	–	–
CCNC(=O)Nc1nc2cc(-c3cncc(N4CCC(C)(C(=O)O)CC4)c3)cc(-c3ccccn3)c2s1 [Compound 181]	≥ 800 µg/mL	> 800 µg/mL	0.25 to 1 µg/mL (≈ 0.484 to 1.94 µM)	≤ 0.25 µg/mL	≤ 0.25 µg/mL	1 to 16 µg/mL (≈ 1.94 to 31 µM)	–	–	–	–	–	–	≥ 800 µg/mL	> 800 µg/mL
